Measurements taken from patent US20260285846A1, “REV-ERB AGONISTS FOR TH17-MEDIATED INFLAMMATORY DISORDERS” (UNIVERSITY OF FLORID RESEARCH FOUNDATION, iNCORPORATED, priority 2021, published 2026).

molecular target: REV-ERBα LBD (Homo sapiens, UniProt P20393, DEL324-422); assay: biochemical; conditions: FRET assay; 6xHistag-REV-ERBα LBD with FITC-labeled SMRT corepressor peptide; read-out: REVERBα (Agonism of REV-ERBα, EC50)
Procedure: TR-FRET corepressor interaction assay. The time-resolved fluorescence resonance energy transfer (TR-FRET) assay was performed in black low-volume 384-well plates (Greiner). Each well contained 4 nM 6×Histag-REV-ERBα LBD (human; residues 281-614 A324-422) or 6×Histag-REV-ERBα LBD (human; residues 381-579) protein expressed in and purified from Escherichia coli using nickel affinity and size exclusion chromatography; 1 nM LanthaScreen Elite Tb-anti-HIS Antibody (Thermo Fisher Scientific); and 400 nM FITC-labeled peptide derived from the SMRT corepressor ([…]) containing a N-terminal FITC label with a six-carbon linker (Ahx) and an amidated C-terminus for stability (synthesized by LifeTein) in TR-FRET buffer (20 mM potassium phosphate, pH 7.4, 50 mM potassium chloride, 1 mM dithiothreitol, and 0.005% Tween-20). Ligand stocks were prepared via serial dilution in DMSO, added to wells in triplicate, and plates were incubated at 4° C. for 2 h and read using a BioTek Synergy Neo multimode plate reader. The Tb donor was excited at 340 nm; its fluorescence emission was monitored at 495 nm, and the acceptor FITC emission was measured at 520 nm; and the TR-FRET ratio was calculated as the signal at 520 nm divided by the signal at 495 nm. Data were plotted using GraphPad Prism as TR-FRET ratio vs. ligand concentration and fit to sigmoidal dose response curve equation.
Exemplary compounds of the present disclosure were assayed as described above to assess agonism of REV-ERBα. Results of the FRET assay are shown in Table 2 below (A: EC50<100 nM; B: EC50 100 nM-1000 nM; C: EC50>1000 nM; NT: not tested).

Sequence of REV-ERBα LBD (P20393 with tags, fused parts or gaps DEL324-422): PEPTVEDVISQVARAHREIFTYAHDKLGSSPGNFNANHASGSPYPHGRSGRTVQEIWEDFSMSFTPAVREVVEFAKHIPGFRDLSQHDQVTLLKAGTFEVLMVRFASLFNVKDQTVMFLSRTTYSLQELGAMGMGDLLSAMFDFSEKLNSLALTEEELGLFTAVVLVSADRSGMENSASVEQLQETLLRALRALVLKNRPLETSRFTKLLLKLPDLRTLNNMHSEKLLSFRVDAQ
Sequence of REV-ERBα LBD (Q9Y618 2335-2356 partner limits assumed): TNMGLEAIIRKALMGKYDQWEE

Q: `CC(C)(C)Cn1cc([C@H](NS(=O)(=O)C2CC2)C(F)F)c2ccc(-c3cccnc3C(F)(F)F)cc21` [Compound 13, (S)—N-(2,2-difluoro-1-(1-neopentyl-6-(2-(trifluoromethyl)pyridin-3-yl)-1H-indol-3-yl)ethyl)cyclopropanesulfonamide] was tested. Which EC50 did it give?
A: < 100 nM

Q: `CC(C)(C)Cn1cc([C@H](NS(=O)(=O)C2CCC2)C(F)F)c2ccc(-c3cccnc3C(F)(F)F)cc21` [Compound 14, (S)—N-(2,2-difluoro-1-(1-neopentyl-6-(2-(trifluoromethyl)pyridin-3-yl)-1H-indol-3-yl)ethyl)cyclobutanesulfonamide] was tested. Which EC50 did it give?
A: < 100 nM

Q: For `Cc1ccccc1-c1ccc2c([C@H](NS(=O)(=O)C3CC3)C(F)F)cn(CC(C)(C)C)c2c1` [Compound 15, (S)—N-(2,2-difluoro-1-(1-neopentyl-6-(o-tolyl)-1H-indol-3-yl)ethyl)cyclopropanesulfonamide], which EC50 is on record?
A: < 100 nM

Q: With `CC(C)(C)Cn1cc([C@H](NS(=O)(=O)C2CC2)C(F)F)c2cc(F)c(C3=CCOCC3)cc21` [Compound 16, (S)—N-(1-(6-(3,6-dihydro-2H-pyran-4-yl)-5-fluoro-1-neopentyl-1H-indol-3-yl)-2,2-difluoroethyl)cyclopropanesulfonamide] as the molecule, how does the EC50 read?
A: < 100 nM

Q: How did the EC50 turn out when `CN(C)S(=O)(=O)N[C@@H](c1cn(CC(C)(C)C)c2cc(-c3ccccc3C(F)(F)F)ccc12)C(F)F` [Compound 21] was run?
A: < 100 nM

Q: How did the EC50 turn out when `CC(C)(C)Cn1cc([C@H](NS(=O)(=O)C2CC(F)C2)C(F)F)c2ccc(-c3ccccc3C(F)(F)F)cc21` (stereo partly drawn) [Compound 22, (S)—N-(2,2-difluoro-1-(1-neopentyl-6-(2-(trifluoromethyl)phenyl)-1H-indol-3-yl)ethyl)-3-fluorocyclobutane-1-sulfonamide] was run?
A: < 100 nM

Q: `Cc1ccccc1-c1ccc2c([C@H](NS(=O)(=O)C3CC(F)(F)C3)C(F)F)cn(CC(C)(C)C)c2c1` [Compound 30, (S)—N-(2,2-difluoro-1-(1-neopentyl-6-(o-tolyl)-1H-indol-3-yl)ethyl)-3,3-difluorocyclobutane-1-sulfonamide] was tested. Which EC50 did it give?
A: 100 to 1000 nM

Q: Which EC50 does the source give for `CC(C)(C)Cn1cc([C@H](NS(=O)(=O)N2CCC2)C(F)F)c2cc(F)c(-c3ccccc3C(F)(F)F)cc21` [Compound 31, (S)—N-(2,2-difluoro-1-(5-fluoro-1-neopentyl-6-(2-(trifluoromethyl)phenyl)-1H-indol-3-yl)ethyl)azetidine-1-sulfonamide] here?
A: < 100 nM

Q: Which EC50 does the source give for `CC(NS(=O)(=O)C1CC1)c1cn(CC(C)(C)C)c2cc(C3CCOC3)c(F)cc12` (stereo not drawn) [Compound 34, N-(1-(5-fluoro-1-neopentyl-6-(tetrahydrofuran-3-yl)-1H-indol-3-yl)ethyl)cyclopropanesulfonamide] here?
A: < 100 nM

Q: Which EC50 does the source give for `CC(NS(=O)(=O)C1CC1)c1cn(CC(C)(C)C)c2cc(C3CCOCC3)c(F)cc12` (stereo not drawn) [Compound 35] here?
A: < 100 nM

Q: How did the EC50 turn out when `Cc1ncccc1-c1cc2c(cc1F)c(C(C)NS(=O)(=O)C1CC1)cn2CC(C)(C)C` (stereo not drawn) [Compound 36, N-(1-(5-fluoro-6-(2-methylpyridin-3-yl)-1-neopentyl-1H-indol-3-yl)ethyl)cyclopropanesulfonamide] was run?
A: < 100 nM

Q: With `CC(NS(=O)(=O)C1CC1)c1cn(CC(C)(C)C)c2cc(-c3cncc(C#N)c3)c(F)cc12` (stereo not drawn) [Compound 37, N-[1-[6-(5-cyano-3-pyridyl)-1-(2,2-dimethylpropyl)-5-fluoro-indol-3-yl]ethyl]cyclopropanesulfonamide] as the molecule, how does the EC50 read?
A: 100 to 1000 nM

Q: `CC(C)(C)Cn1cc([C@H](NS(=O)(=O)C2CC2)C(F)F)c2cc(F)c(-c3cccnc3C(F)(F)F)cc21` [Compound 38, (S)—N-(2,2-difluoro-1-(5-fluoro-1-neopentyl-6-(2-(trifluoromethyl)pyridin-3-yl)-1H-indol-3-yl)ethyl)cyclopropanesulfonamide] was tested. Which EC50 did it give?
A: < 100 nM

Q: With `CC(C)(C)Cn1cc([C@H](NS(=O)(=O)C2CC2)C(F)F)c2ccc(-c3ncccc3C(F)(F)F)cc21` [Compound 39, (S)—N-(2,2-difluoro-1-(1-neopentyl-6-(3-(trifluoromethyl)pyridin-2-yl)-1H-indol-3-yl)ethyl)cyclopropanesulfonamide] as the molecule, how does the EC50 read?
A: < 100 nM

Q: How did the EC50 turn out when `CC(C)(C)Cn1cc([C@H](NS(=O)(=O)C2CC2)C(F)F)c2ccc(-c3ncccc3C#N)cc21` [Compound 40, (S)—N-(1-(6-(3-cyanopyridin-2-yl)-1-neopentyl-1H-indol-3-yl)-2,2-difluoroethyl)cyclopropanesulfonamide] was run?
A: < 100 nM

Q: For `CC(C)(C)Cn1cc(C(NS(=O)(=O)C23CC(C2)C3)C(F)F)c2cc(F)c(-c3ccccc3C(F)(F)F)cc21` (stereo not drawn) [Compound 41, N-(2,2-difluoro-1-(5-fluoro-1-neopentyl-6-(2-(trifluoromethyl)phenyl)-1H-indol-3-yl)ethyl)bicyclo[1.1.1]pentane-1-sulfonamide], which EC50 is on record?
A: < 100 nM

Q: How did the EC50 turn out when `CC(C)S(=O)(=O)N[C@@H](c1cn(CC(C)(C)C)c2cc(-c3cccnc3C(F)(F)F)c(F)cc12)C(F)F` [Compound 42, (S)—N-(2,2-difluoro-1-(5-fluoro-1-neopentyl-6-(2-(trifluoromethyl)pyridin-3-yl)-1H-indol-3-yl)ethyl)propane-2-sulfonamide] was run?
A: < 100 nM

Q: `CN(C)S(=O)(=O)N[C@@H](c1cn(CC(C)(C)C)c2cc(-c3cccnc3C(F)(F)F)c(F)cc12)C(F)F` [Compound 43] was tested. Which EC50 did it give?
A: < 100 nM

Q: How did the EC50 turn out when `[2H]C1([2H])CC(S(=O)(=O)N[C@@H](c2cn(CC(C)(C)C)c3cc(-c4cccnc4C(F)(F)F)c(F)cc23)C(F)F)C1` [Compound 45, (S)—N-(2,2-difluoro-1-(5-fluoro-1-neopentyl-6-(2-(trifluoromethyl)pyridin-3-yl)-1H-indol-3-yl)ethyl)cyclobutane-1-sulfonamide-3,3-d2] was run?
A: < 100 nM

Q: For `CC(C)(C)Cn1cc([C@H](NS(=O)(=O)C2CC(F)C2)C(F)F)c2ccc(-c3cccnc3C(F)(F)F)cc21` (stereo partly drawn) [Compound 46, (S)—N-(2,2-difluoro-1-(1-neopentyl-6-(2-(trifluoromethyl)pyridin-3-yl)-1H-indol-3-yl)ethyl)-3-fluorocyclobutane-1-sulfonamide], which EC50 is on record?
A: < 100 nM

Q: For `CC(C)(C)Cn1cc([C@H](NS(=O)(=O)C2CC2)C(F)F)c2ccc(-c3nccnc3C(F)(F)F)cc21` [Compound 47, (S)—N-(2,2-difluoro-1-(1-neopentyl-6-(3-(trifluoromethyl)pyrazin-2-yl)-1H-indol-3-yl)ethyl)cyclopropanesulfonamide], which EC50 is on record?
A: < 100 nM

Q: Which EC50 does the source give for `CC(C)(C)Cn1cc([C@H](NS(=O)(=O)C2CC2)C(F)F)c2ccc(-c3nccnc3C#N)cc21` [Compound 48, (S)—N-(1-(6-(3-cyanopyrazin-2-yl)-1-neopentyl-1H-indol-3-yl)-2,2-difluoroethyl)cyclopropanesulfonamide] here?
A: 100 to 1000 nM

Q: Which EC50 does the source give for `CC(C)(C)Cn1cc([C@H](NS(=O)(=O)C2CC2)C(F)F)c2ccc(-c3cccnc3C#N)cc21` [Compound 49, (S)—N-(1-(6-(2-cyanopyridin-3-yl)-1-neopentyl-1H-indol-3-yl)-2,2-difluoroethyl)cyclopropanesulfonamide] here?
A: < 100 nM

Q: `CN(C)S(=O)(=O)N[C@@H](c1cn(CC(C)(C)C)c2cc(-c3nccnc3C(F)(F)F)ccc12)C(F)F` [Compound 51] was tested. Which EC50 did it give?
A: < 100 nM

Q: `CC(C)(C)Cn1cc([C@H](NS(=O)(=O)C2CC2)C(F)F)c2ccc(-c3c(C#N)ccnc3C(F)(F)F)cc21` [Compound 52, (S)—N-(1-(6-(4-cyano-2-(trifluoromethyl)pyridin-3-yl)-1-neopentyl-1H-indol-3-yl)-2,2-difluoroethyl)cyclopropanesulfonamide] was tested. Which EC50 did it give?
A: 100 to 1000 nM

Q: For `CC(C)(C)Cn1cc([C@H](NS(=O)(=O)C2CC2)C(F)F)c2ccc(-c3ncc(F)cc3C(F)(F)F)cc21` [Compound 53, (S)—N-(2,2-difluoro-1-(6-(5-fluoro-3-(trifluoromethyl)pyridin-2-yl)-1-neopentyl-1H-indol-3-yl)ethyl)cyclopropanesulfonamide], which EC50 is on record?
A: < 100 nM

Q: Which EC50 does the source give for `CN(C)S(=O)(=O)N[C@@H](c1cn(CC(C)(C)C)c2cc(-c3ccccc3C(F)(F)F)c(F)cc12)C(F)F` [Compound 54] here?
A: < 100 nM

Q: With `CC(C)(C)Cn1cc([C@H](NS(=O)(=O)C2CC2)C(F)F)c2cc(F)c(-c3c(C#N)ccnc3C(F)(F)F)cc21` [Compound 55, N-((1S)-1-(6-(4-cyano-2-(trifluoromethyl)pyridin-3-yl)-5-fluoro-1-neopentyl-1H-indol-3-yl)-2,2-difluoroethyl)cyclopropanesulfonamide] as the molecule, how does the EC50 read?
A: < 100 nM

Q: For `CC(C)(C)Cn1cc([C@H](NS(=O)(=O)C2CC2)C(F)F)c2cc(F)c(-c3ncc(F)cc3C(F)(F)F)cc21` [Compound 56, (S)—N-(2,2-difluoro-1-(5-fluoro-6-(5-fluoro-3-(trifluoromethyl)pyridin-2-yl)-1-neopentyl-1H-indol-3-yl)ethyl)cyclopropanesulfonamide], which EC50 is on record?
A: < 100 nM

Q: Which EC50 does the source give for `CC(C)(C)Cn1cc([C@H](NS(=O)(=O)C2CC2)C(F)F)c2cc(F)c(-c3nccnc3C(F)(F)F)cc21` [Compound 57, (S)—N-(2,2-difluoro-1-(5-fluoro-1-neopentyl-6-(3-(trifluoromethyl)pyrazin-2-yl)-1H-indol-3-yl)ethyl)cyclopropanesulfonamide] here?
A: < 100 nM
